According to PubChem BioAssay (NCI):
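Assay format: 96-well plates, 48-hour exposure. The concentration for full growth arrest is given as TGI.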

Key:
Experiment in all cases: inhibition of tumour cell growth, NCI panel, 48 h
[1] = system: 786-0 renal
[2] = system: A549 NSCLC
[3] = system: CAKI-1 renal
[4] = system: COLO 205 colon
[5] = system: DMS 114 small cell lung
[6] = system: EKVX NSCLC
[7] = system: HCC-2998 colon
[8] = system: HCT-116 colon
[9] = system: HOP-18 NSCLC
[10] = system: HOP-62 NSCLC
[11] = system: HT29 colon
[12] = system: IGROV1 ovarian
[13] = system: K-562 leukemia
[14] = system: KM12 colon
[15] = system: KM20L2 colon
[16] = system: M14 melanoma
[17] = system: M19-MEL melanoma
[18] = system: MALME-3M melanoma
[19] = system: MOLT-4 leukemia
[20] = system: NCI-H23 lung
[21] = system: OVCAR-3 ovarian
[22] = system: OVCAR-4 ovarian
[23] = system: OVCAR-5 ovarian
[24] = system: OVCAR-8 ovarian
[25] = system: RPMI-8226 leukemia
[26] = system: RXF 393 renal
[27] = system: SF-268 CNS
[28] = system: SF-295 CNS
[29] = system: SF-539 CNS
[30] = system: SK-MEL-2 melanoma
[31] = system: SK-MEL-28 melanoma
[32] = system: SK-OV-3 ovarian
[33] = system: SNB-19 CNS
[34] = system: SNB-78 CNS
[35] = system: SR leukemia
[36] = system: TK-10 renal
[37] = system: U251 CNS
[38] = system: UACC-62 melanoma
[39] = system: UO-31 renal
[40] = system: A498 renal
[41] = system: BT-549 breast
[42] = system: CCRF-CEM leukemia
[43] = system: DU-145 prostate
[44] = system: HCT-15 colon
[45] = system: HL-60(TB) leukemia
[46] = system: HOP-92 NSCLC
[47] = system: HS 578T breast
[48] = system: LOX IMVI melanoma
[49] = system: MCF7 breast
[50] = system: MDA-MB-231 breast
[51] = system: MDA-MB-435
[52] = system: MDA-N
[53] = system: NCI-H226 lung
[54] = system: NCI-H460 lung
[55] = system: NCI/ADR-RES ovarian
[56] = system: PC-3 prostate
[57] = system: SK-MEL-5 melanoma
[58] = system: SN12C renal
[59] = system: SNB-75 CNS
[60] = system: SW-620 colon
[61] = system: T-47D breast
[62] = system: UACC-257 melanoma
[63] = system: ACHN renal
[64] = system: NCI-H522 lung
[65] = system: DLD-1 colon
[66] = system: DMS 273 small cell lung
[67] = system: LXFL 529 NSCLC

## C/C(=N\NC(N)=S)c1ccc(C2CCCCC2)cc1
[1]
  TGI: 31.7 µM
[2]
  TGI: > 100 µM
[3]
  TGI: 64.6 µM
[4]
  TGI: 26.1 µM
[5]
  TGI: 29.9 µM
[6]
  TGI: > 100 µM
[7]
  TGI: 42 µM
[8]
  TGI: 44.6 µM
[9]
  TGI: > 100 µM
[10]
  TGI: 73.6 µM
[11]
  TGI: 34.5 µM
[12]
  TGI: 62.1 µM
[13]
  TGI: 39.2 µM
[14]
  TGI: > 100 µM
[15]
  TGI: 30.1 µM
[16]
  TGI: 22.7 µM
[17]
  TGI: > 100 µM
[18]
  TGI: 37.6 µM
[19]
  TGI: 35.7 µM
[20]
  TGI: 56.3 µM
[21]
  TGI: 30.5 µM
[22]
  TGI: 38.4 µM
[23]
  TGI: 35.1 µM
[24]
  TGI: 36.8 µM
[25]
  TGI: > 100 µM
[26]
  TGI: 27.6 µM
[27]
  TGI: > 100 µM
[28]
  TGI: 21 µM
[29]
  TGI: 38 µM
[30]
  TGI: 32.8 µM
[31]
  TGI: 33.7 µM
[32]
  TGI: 75.9 µM
[33]
  TGI: > 100 µM
[34]
  TGI: 91.1 µM
[35]
  TGI: > 100 µM
[36]
  TGI: 80.3 µM
[37]
  TGI: 39.9 µM
[38]
  TGI: 32.2 µM
[39]
  TGI: 41.8 µM

## CCOC(=O)c1cc(Br)c(-c2cc(C)co2)[nH]1
[1]
  TGI: > 100 µM
[40]
  TGI: > 100 µM
[2]
  TGI: > 100 µM
[41]
  TGI: > 100 µM
[3]
  TGI: > 100 µM
[42]
  TGI: > 100 µM
[4]
  TGI: > 100 µM
[43]
  TGI: > 100 µM
[6]
  TGI: > 100 µM
[7]
  TGI: > 100 µM
[8]
  TGI: > 100 µM
[44]
  TGI: > 100 µM
[45]
  TGI: > 100 µM
[10]
  TGI: > 100 µM
[46]
  TGI: > 100 µM
[47]
  TGI: > 100 µM
[11]
  TGI: > 100 µM
[12]
  TGI: > 100 µM
[13]
  TGI: > 100 µM
[14]
  TGI: > 100 µM
[48]
  TGI: > 100 µM
[16]
  TGI: > 100 µM
[18]
  TGI: > 100 µM
[49]
  TGI: > 100 µM
[50]
  TGI: > 100 µM
[51]
  TGI: > 100 µM
[52]
  TGI: > 100 µM
[19]
  TGI: > 100 µM
[53]
  TGI: > 100 µM
[20]
  TGI: > 100 µM
[54]
  TGI: > 100 µM
[55]
  TGI: > 100 µM
[21]
  TGI: > 100 µM
[22]
  TGI: > 100 µM
[23]
  TGI: > 100 µM
[24]
  TGI: > 100 µM
[56]
  TGI: > 100 µM
[25]
  TGI: > 100 µM
[26]
  TGI: > 100 µM
[27]
  TGI: > 100 µM
[28]
  TGI: > 100 µM
[29]
  TGI: > 100 µM
[30]
  TGI: > 100 µM
[31]
  TGI: > 100 µM
[57]
  TGI: > 100 µM
[32]
  TGI: > 100 µM
[58]
  TGI: > 100 µM
[33]
  TGI: > 100 µM
[59]
  TGI: > 100 µM
[35]
  TGI: > 100 µM
[60]
  TGI: > 100 µM
[61]
  TGI: > 100 µM
[37]
  TGI: > 100 µM
[62]
  TGI: > 100 µM
[38]
  TGI: > 100 µM
[39]
  TGI: > 100 µM

## CC(NC(=O)C(Cc1ccc(OC(=O)c2ccccc2)cc1)NC(=O)OC(C)(C)C)C(=O)NCC(=O)NC(Cc1ccccc1)C(=O)NN (centres undefined)
[1]
  TGI: > 100 µM
[40]
  TGI: > 100 µM
[2]
  TGI: > 100 µM
[63]
  TGI: > 100 µM
[41]
  TGI: > 100 µM
[3]
  TGI: > 100 µM
[4]
  TGI: 53.2 µM
[43]
  TGI: > 100 µM
[6]
  TGI: > 100 µM
[8]
  TGI: > 100 µM
[44]
  TGI: > 100 µM
[45]
  TGI: 41.5 µM
[10]
  TGI: > 100 µM
[46]
  TGI: > 100 µM
[47]
  TGI: > 100 µM
[11]
  TGI: > 100 µM
[12]
  TGI: > 100 µM
[13]
  TGI: 76.4 µM
[14]
  TGI: > 100 µM
[48]
  TGI: 45 µM
[16]
  TGI: > 100 µM
[18]
  TGI: > 100 µM
[49]
  TGI: > 100 µM
[50]
  TGI: > 100 µM
[51]
  TGI: > 100 µM
[52]
  TGI: > 100 µM
[19]
  TGI: 69.4 µM
[53]
  TGI: > 100 µM
[20]
  TGI: > 100 µM
[54]
  TGI: > 100 µM
[64]
  TGI: > 100 µM
[55]
  TGI: > 100 µM
[21]
  TGI: > 100 µM
[22]
  TGI: > 100 µM
[23]
  TGI: > 100 µM
[24]
  TGI: > 100 µM
[56]
  TGI: > 100 µM
[25]
  TGI: 38.1 µM
[26]
  TGI: > 100 µM
[27]
  TGI: > 100 µM
[28]
  TGI: > 100 µM
[29]
  TGI: > 100 µM
[31]
  TGI: > 100 µM
[57]
  TGI: > 100 µM
[32]
  TGI: > 100 µM
[33]
  TGI: > 100 µM
[59]
  TGI: > 100 µM
[35]
  TGI: 56.9 µM
[60]
  TGI: > 100 µM
[61]
  TGI: > 100 µM
[36]
  TGI: > 100 µM
[37]
  TGI: > 100 µM
[38]
  TGI: > 100 µM
[39]
  TGI: > 100 µM

## CC(=O)Nc1ccc(-c2nnc(SCC(=O)Nc3ccc(Cl)cc3)o2)cc1
[1]
  TGI: 19.6 µM
[40]
  TGI: 31.7 µM
[2]
  TGI: 32 µM
[63]
  TGI: 28.5 µM
[3]
  TGI: 33.7 µM
[42]
  TGI: 82.9 µM
[4]
  TGI: 34.6 µM
[65]
  TGI: 27.9 µM
[5]
  TGI: 4.29 µM
[66]
  TGI: 40.3 µM
[6]
  TGI: 38.4 µM
[7]
  TGI: 37.5 µM
[8]
  TGI: 20.2 µM
[44]
  TGI: 40 µM
[45]
  TGI: 40.1 µM
[9]
  TGI: 30.2 µM
[10]
  TGI: 39.7 µM
[11]
  TGI: 23.2 µM
[12]
  TGI: 29.3 µM
[13]
  TGI: > 100 µM
[14]
  TGI: 29 µM
[15]
  TGI: 33.3 µM
[48]
  TGI: 22.4 µM
[67]
  TGI: 22.5 µM
[16]
  TGI: 34.1 µM
[17]
  TGI: 45.4 µM
[18]
  TGI: 29.4 µM
[19]
  TGI: 32.8 µM
[53]
  TGI: 37 µM
[20]
  TGI: 18.2 µM
[54]
  TGI: 36.8 µM
[64]
  TGI: 5.98 µM
[21]
  TGI: 31.1 µM
[22]
  TGI: 55.9 µM
[23]
  TGI: 31.6 µM
[24]
  TGI: 74.1 µM
[25]
  TGI: > 100 µM
[26]
  TGI: 22.6 µM
[27]
  TGI: 20.1 µM
[28]
  TGI: 25.2 µM
[29]
  TGI: 30.2 µM
[30]
  TGI: 49 µM
[31]
  TGI: 27.2 µM
[57]
  TGI: 19.7 µM
[32]
  TGI: 47.1 µM
[58]
  TGI: 27.5 µM
[33]
  TGI: 35.7 µM
[59]
  TGI: 39.7 µM
[34]
  TGI: > 100 µM
[60]
  TGI: 29.8 µM
[36]
  TGI: 32.4 µM
[37]
  TGI: 12.9 µM
[62]
  TGI: 40.9 µM
[38]
  TGI: 20.2 µM
[39]
  TGI: 33.6 µM
